Experimental data from patent US4760023A, “[21-leucine] human urogastrone, corresponding gene, corresponding recombinant plasmid, transformed cell and process for production thereof” (Wakunaga Seiyaku Kabushiki Kaisha, priority 1983, dated 1988).

How the values were obtained:
[1] = test system: mouse 3T3 cells; assay: Bioassay of activity stimulating thymidine incorporation; type: cell-based; conditions: for 3H-Thymidine In-take Amount cpm: 18 hours; for 3H-Thymidine In-take Amount Δcpm: minus no addition
Protocol: Incorporation of thymidine was determined according to a modification of the method of Aharon Aharonov et al [J.B.C., 253, 3970 (1978)] and the method of Jimenez de Asua et al [PNAS, 72, 2724 (1975)]. More specifically, 6×10^3 of mouse 3T3 cells were seeded in 0.5 ml of 5% FBS-DME medium in a multi-well dish, and culturing was done for 5 days to grow as monolayers to sub-confluency. The medium was removed, and the cells were washed with PBS, and 0.5 ml of 0.5% FBS-DME medium was added. Incubation was done overnight. Then, 0.5 ml of 0.5% FBS-DME medium containing [21-L] hUG at a predetermined concentration or mEGF was added, and incubation was further continued for 18 hours. Then, 200 nci of [^3 H]-thymidine was added, and incubation was carried out at 55° C. for 30 minutes. The cells were washed twice with cold HBSS containing 20 mM Hepes (pH 7.4) and washed twice with 5% TCA. Then, 200 μl of 1N NaOH was added, and incubation was carried out at 55° C. for 30 minutes to dissolve DNA. Then, 50 μl of the DNA solution was taken and 25 μl of 2N HCl was added for neutralization. The radio-activity of Thymidine was measured by means of a liquid scintillation counter.

[2] = biological target: T1, mouse 3T3 cell (Mus musculus, UniProt Q01279); assay: RRA using mouse 3T3 cell; type: binding
T1 construct: endogenous in cells; host or cells: mouse 3T3 cells
Protocol: RPA using mouse 3T3 cell was carried out according to the process of C.

[3] = biological target: T2, KB cell EGF receptor (Homo sapiens, UniProt P00533); assay: Radioreceptor assay (RRA) using KB cells, competition with 125I-mEGF; type: binding; conditions: FIG. 2
T2 construct: endogenous in cells; host or cells: KB cells (ATCC No. CCL17), intact cells in suspension
Protocol: RRA of [21-L] hUG was carried out using KB cells (ATCC No. CCL17) derived from a human nasopharyngeal epidermoid carcinoma in the light of the process of A. King et al [see J.B.C., 257, 3053 (1982)]. More specifically, monolayer culturing was carried out in DME medium in a 800-ml flask. The culture medium was removed, and cells were peeled with a phosphate buffer salt solution (PBS) containing 0.05% of EDTA to prepare a cell suspension. Then, the cells were washed 2 times with Hank's balanced salt solution (HBSS) containing 20 mM Hepes (pH 7.4). Then, the cells were suspended in a binding solution (DME medium, 20 mM Hepes, pH 7.4, 0.35 g/l of NaHCO3 and 100 μg/ml of Streptomycin), and the cell number was calculated and the cell density was adjusted to from 300,000 to 400,000 per 0.2 ml of the binding solution. The suspension was poured into tubes (0.2 ml in each tube), and 0.2 ml each of sample containing [21-L] hUG and ^125 I-mEGF (mouse EGF) at various concentrations were added into the tubes, respectively. Incubation was carried out at 37° C. for 1 hour. The cells were washed 3 times with ice-cold HBSS and suspended in 10% TCA, and the cells were separated from the solution by filtration through a glass filter. TCA was removed with acetone, and counting of radioactivity associated with the cells was performed by using a scintillation counter. […]

[4] = test system: ulcer caused by ligation of the pylorus; assay: Inhibitory effect on generation of stomach ulcer (pylorus ligation); type: in vivo, rats of the Wister strain; conditions: rat
Protocol: The inhibitory effect of [21-L] hUG on generation of ulcer was examined on the basis of the activity of EGF of anti-gastric acid secretion [Gut, 16, 887 (1975)].
7-weeks-old male rats of the Wister strain were bred and caused to fast for 24 hours before ligation of the pylorus. The pylorus was ligated for 17 hours, and ulcer was caused by fasting and abstinence from drinking. The peptide fraction containing [21-L] hUG (corresponding to 500 μg of the protein) or physiological saline as a control was hypodermically injected 30 minutes before ligation of the pylorus. Each group tested consisted of 5 rats, and the anti-ulcer action was evaluated by calculating the ulcer index. More specifically, the long and short diameters of the olcerous erosion generated by ligation of the pylorus were measured under an anatomical microscope, and the sum of products of the long and short diameters per rat was defined as the ulcer coefficient.

[5] = test system: mouse 3T3 cells; assay: Bioassay of activity promoting proliferation of mouse 3T3 cells (viable cell count); type: cell-based; conditions: 4 days, 0.5% FBS-DME, FIG. 3
Protocol: The activity of promoting proliferation of cells was determined by the following procedure. More specifically, monolayer culturing of mouse 3T3 cells was carried out in a 25-cm^2 flask, and the cells were treated with calcium- and magnesium-free HBSS (CMF-HBSS) containing 0.02% of EDTA and 0.05% of trypsin to prepare cell suspensions. The cells were washed with CMF-HBSS and resuspended in DME medium containing 0.5% of fetal bovine serum (FBS), and the number of viable cells was counted. The cell suspension was diluted with 0.5% FBS-DME medium so that the cell number was 2×10^4 per ml. Then, 1 ml of the cell suspension was seeded per 35 mm dish and incubation was carried out overnight in a CO2 incubator. Peptide fractions containing different concentrations of [21-L] hUG and mEGF as a control were dissolved in 0.5% FBS-DME medium and the mixtures were filtered by a Millipore filter (type GV, wpo 2500), and 1 ml aliquots of the mixtures were added to the above cell suspension. Incubation was carried out for 4 days in a CO2 incubator (5% CO2 -95% air, 37° C.). Viable cells were stained with Trypan Blue, and the number of the viable cells was counted using a counting chamber. […]

## [21-leucine] human urogastrone (NSDSECPLSHDGYCLHDGVCLYIEALDKYACNCVVGYIGERCQYRDLKWWELR; Epidermal growth factor; UniProt P01133 971-1023, looked up, variant M21L) [[21-L] hUG, 53-residue polypeptide, same as hUG except that the 21st amino acid is Leu; produced in E. coli, released by cyanogen bromide]
[1]; 0.73 μg/ml
  3H-Thymidine In-take Amount cpm: 17,170.8 cpm
  3H-Thymidine In-take Amount Δcpm: 12,531.3 cpm
[1]; 1.46 μg/ml
  3H-Thymidine In-take Amount cpm: 11,761.7 cpm
  3H-Thymidine In-take Amount Δcpm: 7,122.2 cpm
[1]; 2.93 μg/ml
  3H-Thymidine In-take Amount cpm: 13,567.0 cpm
  3H-Thymidine In-take Amount Δcpm: 8,927.5 cpm
[1]; mouse 3T3 cells
  thymidine incorporation (in words): promotes greatly thymidine incorporation
[2]
  RRA result using mouse 3T3 cell: results similar to the results obtained in RRA using KB cell
[3]; 37° C., 1 hour
  inhibition of binding of 125I-mEGF to the KB cell EGF receptor: competitively inhibits binding
[3]
  dosage-response curve in RRA compared with mEGF: in good agreement with that of mEGF
[4]; 500 μg of the protein hypodermically 30 minutes before ligation, pylorus ligated 17 hours
  Ulcer Coefficient: 44.5 ± 18.0 mm^2
[4]; pylorus ligation
  generation of the ulcer (in words): tends to inhibit generation of the ulcer
[5]
  dose-response curve of cell proliferation compared with mEGF: in good agreement with the curve for mEGF

## mouse epidermal growth factor (NSYPGCPSSYDGYCLNGGVCMHIESLDSYTCNCVIGYSGDRCQTRDLRWWELR; not fully specified; Epidermal growth factor; UniProt P01132 977-1029, looked up) [mEGF, mEGF (Toyobo, Japan), used for comparison]
[1]; 1 ng/ml
  3H-Thymidine In-take Amount cpm: 14,510.5 cpm
  3H-Thymidine In-take Amount Δcpm: 9,871.0 cpm
[1]; 2 ng/ml
  3H-Thymidine In-take Amount cpm: 13,387.4 cpm
  3H-Thymidine In-take Amount Δcpm: 8,747.9 cpm
[1]; 5 ng/ml
  3H-Thymidine In-take Amount cpm: 14,695.2 cpm
  3H-Thymidine In-take Amount Δcpm: 10,055.7 cpm
[1]; 10 ng/ml
  3H-Thymidine In-take Amount cpm: 14,094.6 cpm
  3H-Thymidine In-take Amount Δcpm: 9,455.1 cpm
